Key:
Test in all cases: Kinase selectivity profile, 33P-ATP filter-binding assay
Format in all cases: biochemical
GSK3β = GSK3β (Homo sapiens, UniProt P49841)
Description: (§1) Figure 5 Kinase selectivity profile of 1b. Compound 1b was profiled against a selected panel of 95 different kinases at a concentration of 10 µM employing a radioactive (^33P-ATP) filter-binding assay (National Centre for Protein Kinase Profiling, Dundee). The numbers represent the remaining kinase activity in %. […] TEXT PRINTED IN THE PICTURE: no label printed: Aurora B: 53; MNK2: 67; MINK1: 69; HER4: 71; MKK1: 75; PKBβ: 75; PHK: 76; PIM2: 76; PIM3: 77; CHK2: 78; PKD1: 79; TBK1: 79; PAK4: 80; Lck: 80; GSK3β: 80; IGF-1R: 81; p38δ MAPK: 81; PIM1: 82; SRPK1: 83; SmMLCK: 83; MAPKAP-K3: 84; EPH A2: 85; MELK: 85; CK2: 85; CK1: 86; CAMK1: 86; PLK1: 87; MST2: 87; IR-HIS: 87; BTK: 87; HIPK1: 87; p38α MAPK: 88; DYRK2: 88; JNK3: 88; PAK5: 88; IKKε: 89; p38β MAPK: 89; NUAK1: 90; PAK2: 90; MNK1: 91; ERK8: 91; GCK: 91; PRAK: 91; MLK1: 92; SGK1: 92; PAK6: 92; TTK: 92; BRSK2: 92; MARK4: 93; CHK1: 93; RIPK2: 94; CDK2-Cyclin A: 94; JNK1: 94; AMPK: 94; VEG-FR: 95; DYRK1A: 95; CAMKKβ: 95; PKCα: 96; S6K1: 96; MSK1: 96; PKCz: 96; YES1: 96; RSK1: 97; IRAK4: 97; DYRK3: 97; IKKβ: 97; ERK2: 98; MLK3: 98; RSK2: 98; LKB1: 98; MAPKAP-K2: 98; ERK1: 99; FGF-R1: 99; SYK: 99; MST4: 99; MARK3: 99; MARK2: 100; PDK1: 100; JNK2: 101; HIPK2: 101; BRSK1: 102; EF2K: 102; PRK2: 103; Aurora A: 104; IRR: 104; CSK: 104; PKA: 104; NEK6: 105; p38γ MAPK: 105; Src: 107; PKBα: 109; ROCK 2: 109; EPH-B3: 112; HIPK3: 115; NEK2α: 119 DOUBTS OF THE COPYIST ABOUT THIS PICTURE: The picture prints no compound label and no measure or unit for the numbers; only the colour scale 'Inhibition weak/strong' is printed. / PKCz: the last letter may be z or ζ / NEK2α: the last letter may be a or α / IKKε: the last letter may be ε or e

ERK1 = ERK1 (Homo sapiens, UniProt P27361)
Description: as §1

TTK = TTK (Homo sapiens, UniProt P33981)
Sequence of TTK (P33981 whole entry): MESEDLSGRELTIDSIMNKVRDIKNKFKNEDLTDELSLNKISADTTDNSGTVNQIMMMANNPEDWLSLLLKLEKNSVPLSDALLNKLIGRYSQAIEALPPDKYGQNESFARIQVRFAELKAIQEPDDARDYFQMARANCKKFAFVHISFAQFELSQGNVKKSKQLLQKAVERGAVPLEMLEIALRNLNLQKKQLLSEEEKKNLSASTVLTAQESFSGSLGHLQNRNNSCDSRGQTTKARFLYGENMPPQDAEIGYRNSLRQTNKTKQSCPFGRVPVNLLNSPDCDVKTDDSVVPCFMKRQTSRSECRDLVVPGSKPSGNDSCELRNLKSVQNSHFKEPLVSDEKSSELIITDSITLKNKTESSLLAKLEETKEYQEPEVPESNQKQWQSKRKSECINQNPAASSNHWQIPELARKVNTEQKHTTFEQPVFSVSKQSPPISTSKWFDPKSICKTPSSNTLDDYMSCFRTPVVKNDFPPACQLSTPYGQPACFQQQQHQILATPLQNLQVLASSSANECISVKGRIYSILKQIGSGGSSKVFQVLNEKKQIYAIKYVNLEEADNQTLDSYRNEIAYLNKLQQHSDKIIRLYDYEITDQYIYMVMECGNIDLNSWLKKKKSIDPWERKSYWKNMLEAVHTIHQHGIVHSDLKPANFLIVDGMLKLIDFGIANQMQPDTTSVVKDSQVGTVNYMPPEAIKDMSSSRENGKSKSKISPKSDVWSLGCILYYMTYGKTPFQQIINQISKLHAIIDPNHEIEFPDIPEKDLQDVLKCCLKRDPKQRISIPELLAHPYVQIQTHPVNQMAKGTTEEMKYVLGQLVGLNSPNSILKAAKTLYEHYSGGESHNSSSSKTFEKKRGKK
Description: as §1

EPH-B3 = EPH-B3 (Homo sapiens, UniProt P54753)
Description: as §1

LKB1 = LKB1 (Homo sapiens, UniProt Q15831)
Description: as §1

MST4 = MST4 (Homo sapiens, UniProt Q9P289)
Sequence of MST4 (Q9P289 whole entry): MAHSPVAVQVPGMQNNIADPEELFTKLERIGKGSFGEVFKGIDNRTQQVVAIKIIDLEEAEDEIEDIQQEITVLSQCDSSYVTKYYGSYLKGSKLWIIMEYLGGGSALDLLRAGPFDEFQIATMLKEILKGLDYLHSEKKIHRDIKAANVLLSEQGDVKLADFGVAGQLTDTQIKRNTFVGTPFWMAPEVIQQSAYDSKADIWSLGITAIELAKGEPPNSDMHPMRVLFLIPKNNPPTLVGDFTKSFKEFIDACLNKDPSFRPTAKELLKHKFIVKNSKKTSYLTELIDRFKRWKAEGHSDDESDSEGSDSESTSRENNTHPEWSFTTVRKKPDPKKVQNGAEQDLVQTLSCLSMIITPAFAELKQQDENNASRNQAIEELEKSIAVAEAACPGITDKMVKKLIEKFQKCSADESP
Description: as §1

NEK6 = NEK6 (Homo sapiens, UniProt Q9HC98)
Sequence of NEK6 (Q9HC98 whole entry): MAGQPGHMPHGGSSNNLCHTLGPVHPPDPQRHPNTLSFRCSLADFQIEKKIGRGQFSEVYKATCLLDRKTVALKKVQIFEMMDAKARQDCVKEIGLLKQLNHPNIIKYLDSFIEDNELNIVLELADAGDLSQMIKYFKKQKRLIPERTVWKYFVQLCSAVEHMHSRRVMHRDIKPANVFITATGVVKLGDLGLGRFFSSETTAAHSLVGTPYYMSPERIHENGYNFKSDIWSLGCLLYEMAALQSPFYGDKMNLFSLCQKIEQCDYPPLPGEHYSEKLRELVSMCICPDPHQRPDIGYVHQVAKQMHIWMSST
Description: as §1

HER4 = HER4 (Homo sapiens, UniProt Q15303)
Description: as §1

ERK8 = ERK8 (Homo sapiens, UniProt Q8TD08)
Description: as §1

NEK2α = NEK2α (Homo sapiens, UniProt P51955)
Description: as §1

MLK3 = MLK3 (Homo sapiens, UniProt Q16584)
Description: as §1

IRR = IRR (Homo sapiens, UniProt P14616)
Description: as §1

CHK1 = CHK1 (Homo sapiens, UniProt O14757)
Sequence of CHK1 (O14757 whole entry): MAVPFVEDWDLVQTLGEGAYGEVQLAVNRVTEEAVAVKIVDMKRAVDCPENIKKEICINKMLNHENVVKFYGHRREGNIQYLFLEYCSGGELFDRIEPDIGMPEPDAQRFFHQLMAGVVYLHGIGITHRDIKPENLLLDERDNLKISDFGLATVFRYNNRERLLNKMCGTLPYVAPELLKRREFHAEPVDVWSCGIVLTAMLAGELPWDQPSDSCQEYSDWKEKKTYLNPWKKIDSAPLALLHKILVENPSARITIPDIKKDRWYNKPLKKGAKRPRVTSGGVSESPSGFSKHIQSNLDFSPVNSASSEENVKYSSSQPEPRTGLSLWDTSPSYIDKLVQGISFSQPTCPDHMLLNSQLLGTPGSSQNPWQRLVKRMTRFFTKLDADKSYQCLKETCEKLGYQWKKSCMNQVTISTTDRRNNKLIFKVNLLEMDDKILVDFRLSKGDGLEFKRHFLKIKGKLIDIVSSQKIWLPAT
Description: as §1

CDK2-Cyclin A = CDK2-Cyclin A (Homo sapiens, UniProt P24941)
Description: as §1

HIPK2 = HIPK2 (Homo sapiens, UniProt Q9H2X6)
Description: as §1

PLK1 = PLK1 (Homo sapiens, UniProt P53350)
Sequence of PLK1 (P53350 whole entry): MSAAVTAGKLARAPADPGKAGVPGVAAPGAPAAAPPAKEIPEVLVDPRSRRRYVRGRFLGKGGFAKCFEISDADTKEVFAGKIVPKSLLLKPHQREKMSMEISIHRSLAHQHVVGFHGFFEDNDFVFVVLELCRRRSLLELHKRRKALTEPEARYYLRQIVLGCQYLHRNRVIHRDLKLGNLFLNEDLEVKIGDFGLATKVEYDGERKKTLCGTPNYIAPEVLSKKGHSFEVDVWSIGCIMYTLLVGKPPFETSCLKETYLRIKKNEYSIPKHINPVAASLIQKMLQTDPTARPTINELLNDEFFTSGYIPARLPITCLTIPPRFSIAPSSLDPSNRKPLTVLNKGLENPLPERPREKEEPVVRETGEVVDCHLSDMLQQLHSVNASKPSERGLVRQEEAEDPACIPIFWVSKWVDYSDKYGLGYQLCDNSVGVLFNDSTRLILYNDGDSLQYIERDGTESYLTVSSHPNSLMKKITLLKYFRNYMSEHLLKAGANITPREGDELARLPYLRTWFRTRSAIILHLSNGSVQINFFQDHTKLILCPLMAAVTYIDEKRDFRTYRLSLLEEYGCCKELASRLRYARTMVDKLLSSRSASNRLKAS
Description: as §1

HIPK1 = HIPK1 (Homo sapiens, UniProt Q86Z02)
Description: as §1

MSK1 = MSK1 (Homo sapiens, UniProt O75582)
Sequence of MSK1 (O75582 whole entry): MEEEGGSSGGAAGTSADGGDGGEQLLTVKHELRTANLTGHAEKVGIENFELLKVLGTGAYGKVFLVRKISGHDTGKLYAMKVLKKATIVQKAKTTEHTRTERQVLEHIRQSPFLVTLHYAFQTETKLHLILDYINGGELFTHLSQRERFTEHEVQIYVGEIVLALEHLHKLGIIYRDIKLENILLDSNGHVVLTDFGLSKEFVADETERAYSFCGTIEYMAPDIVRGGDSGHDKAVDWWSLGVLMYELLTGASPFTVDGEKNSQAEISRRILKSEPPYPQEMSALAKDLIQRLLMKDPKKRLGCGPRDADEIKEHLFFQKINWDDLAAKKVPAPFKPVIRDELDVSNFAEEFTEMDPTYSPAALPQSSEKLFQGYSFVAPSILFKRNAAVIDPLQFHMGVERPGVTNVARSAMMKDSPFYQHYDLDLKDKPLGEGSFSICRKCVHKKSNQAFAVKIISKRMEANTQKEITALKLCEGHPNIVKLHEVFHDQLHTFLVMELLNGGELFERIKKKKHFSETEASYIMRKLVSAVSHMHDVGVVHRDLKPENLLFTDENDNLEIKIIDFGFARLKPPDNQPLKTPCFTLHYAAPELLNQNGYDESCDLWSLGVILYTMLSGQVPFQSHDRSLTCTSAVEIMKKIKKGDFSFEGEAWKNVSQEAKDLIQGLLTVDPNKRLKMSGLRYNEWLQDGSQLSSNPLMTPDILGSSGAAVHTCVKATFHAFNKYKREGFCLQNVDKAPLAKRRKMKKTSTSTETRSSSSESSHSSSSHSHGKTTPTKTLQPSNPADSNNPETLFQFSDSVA
Description: as §1

MNK1 = MNK1 (Homo sapiens, UniProt Q9BUB5)
Description: as §1

IR-HIS = IR-HIS (Homo sapiens, UniProt P06213)
Description: as §1

GCK = GCK (Homo sapiens, UniProt Q12851)
Sequence of GCK (Q12851 whole entry): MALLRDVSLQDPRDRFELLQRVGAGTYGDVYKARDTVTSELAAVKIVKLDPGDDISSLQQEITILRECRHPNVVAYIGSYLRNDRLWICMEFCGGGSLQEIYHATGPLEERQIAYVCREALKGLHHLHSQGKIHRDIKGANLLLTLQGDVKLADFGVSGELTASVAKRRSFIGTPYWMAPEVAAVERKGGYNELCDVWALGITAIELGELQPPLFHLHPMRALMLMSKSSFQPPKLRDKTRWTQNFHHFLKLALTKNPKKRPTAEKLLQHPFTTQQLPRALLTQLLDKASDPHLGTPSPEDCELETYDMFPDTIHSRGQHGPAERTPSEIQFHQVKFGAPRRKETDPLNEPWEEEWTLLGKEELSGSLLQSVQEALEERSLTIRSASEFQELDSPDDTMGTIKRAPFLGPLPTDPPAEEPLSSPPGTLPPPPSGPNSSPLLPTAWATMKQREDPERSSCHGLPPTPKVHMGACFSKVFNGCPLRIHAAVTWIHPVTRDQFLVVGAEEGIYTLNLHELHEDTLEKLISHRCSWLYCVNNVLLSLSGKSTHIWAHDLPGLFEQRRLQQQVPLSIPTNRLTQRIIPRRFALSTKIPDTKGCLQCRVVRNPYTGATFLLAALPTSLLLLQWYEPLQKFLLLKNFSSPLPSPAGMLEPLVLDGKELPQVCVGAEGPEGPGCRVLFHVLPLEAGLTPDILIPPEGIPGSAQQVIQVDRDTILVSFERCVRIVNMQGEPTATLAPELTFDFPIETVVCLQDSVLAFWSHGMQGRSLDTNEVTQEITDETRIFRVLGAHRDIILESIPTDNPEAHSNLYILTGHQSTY
Description: as §1

JNK2 = JNK2 (Homo sapiens, UniProt P45984)
Description: as §1

PKCz = PKCz (Homo sapiens, UniProt Q05513)
Description: as §1

MAPKAP-K2 = MAPKAP-K2 (Homo sapiens, UniProt P49137)
Description: as §1

PDK1 = PDK1 (Homo sapiens, UniProt O15530)
Description: as §1

IKKε = IKKε (Homo sapiens, UniProt Q14164)
Sequence of IKKε (Q14164 whole entry): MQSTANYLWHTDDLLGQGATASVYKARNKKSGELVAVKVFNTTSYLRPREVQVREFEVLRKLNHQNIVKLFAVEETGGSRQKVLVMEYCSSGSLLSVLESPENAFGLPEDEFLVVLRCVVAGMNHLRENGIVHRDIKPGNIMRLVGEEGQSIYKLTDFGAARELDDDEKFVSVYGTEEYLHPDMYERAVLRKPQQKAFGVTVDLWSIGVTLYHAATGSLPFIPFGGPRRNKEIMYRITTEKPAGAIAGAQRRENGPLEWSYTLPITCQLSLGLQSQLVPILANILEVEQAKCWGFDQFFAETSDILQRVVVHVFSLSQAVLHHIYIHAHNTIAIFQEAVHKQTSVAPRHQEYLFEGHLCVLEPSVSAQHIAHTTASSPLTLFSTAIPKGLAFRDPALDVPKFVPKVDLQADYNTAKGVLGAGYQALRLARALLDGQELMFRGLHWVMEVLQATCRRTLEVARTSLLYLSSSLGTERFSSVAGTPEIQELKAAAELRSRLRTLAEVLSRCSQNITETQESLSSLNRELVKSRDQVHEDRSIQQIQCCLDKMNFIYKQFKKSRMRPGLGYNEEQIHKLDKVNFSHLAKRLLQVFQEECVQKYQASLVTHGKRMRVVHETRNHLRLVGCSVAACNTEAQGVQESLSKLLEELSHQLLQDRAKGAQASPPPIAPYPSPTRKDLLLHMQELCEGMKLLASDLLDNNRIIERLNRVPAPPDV
Description: as §1

PAK4 = PAK4 (Homo sapiens, UniProt O96013)
Description: as §1

SMILES: Nc1ccc2c(NC3CC3)nc(-c3ccccc3)nc2c1 [1b, N^4-Cyclopropyl-2-phenyl-4,7-quinazolinediamine]
- remaining activity at 10 µM (GSK3β): 80%
- remaining activity at 10 µM (ERK1): 99%
- remaining activity at 10 µM (TTK): 92%
- remaining activity at 10 µM (EPH-B3): 112%
- remaining activity at 10 µM (LKB1): 98%
- remaining activity at 10 µM (MST4): 99%
- remaining activity at 10 µM (NEK6): 105%
- remaining activity at 10 µM (HER4): 71%
- remaining activity at 10 µM (ERK8): 91%
- remaining activity at 10 µM (NEK2α): 119%
- remaining activity at 10 µM (MLK3): 98%
- remaining activity at 10 µM (IRR): 104%
- remaining activity at 10 µM (CHK1): 93%
- remaining activity at 10 µM (CDK2-Cyclin A): 94%
- remaining activity at 10 µM (HIPK2): 101%
- remaining activity at 10 µM (PLK1): 87%
- remaining activity at 10 µM (HIPK1): 87%
- remaining activity at 10 µM (MSK1): 96%
- remaining activity at 10 µM (MNK1): 91%
- remaining activity at 10 µM (IR-HIS): 87%
- remaining activity at 10 µM (GCK): 91%
- remaining activity at 10 µM (JNK2): 101%
- remaining activity at 10 µM (PKCz): 96%
- remaining activity at 10 µM (MAPKAP-K2): 98%
- remaining activity at 10 µM (PDK1): 100%
- remaining activity at 10 µM (IKKε): 89%
- remaining activity at 10 µM (PAK4): 80%
